Experimental data from patent publication US5104859A, “Continuous administration of adenosine to reduce pulmonary vascular resistance” (priority 1990, dated 1992).
Entries after “also recorded” stand apart in the source; their conditions may differ. Read-outs that look alike come from different tables or passages of the source.

What was measured:
[1] = test system: cardiac output; assay: Cardiac output; type: in vivo, human; conditions: for cardiac output and heart work (words): intravenous infusion
Source text: This is in contrast to other vasodilators, such as sodium nitroprusside, which may reduce cardiac output, depending on the hemodynamic status of the patient. As a consequence, adenosine can be used to stimulate cardiac output in patients with low cardiac output states, due, for example, to heart surgery, infarct and the like.
For this application, effective dosages are intermediate those used for increased graft flow and controlled hypotension. Typically the effective dose is of the order of 40-80 ug/kg/per minute. The duration of treatment can be as long as required to support the heart.

[2] = test system: coronary bypass grafts; assay: Coronary bypass graft flow and hemodynamics during coronary artery surgery
Experimental: It has been reported that coronary artery grafts occlude more frequently during the postoperative period when low graft-flow values are obtained during surgery. See Groudin et al, Circulation, 42: Suppl 3: 106-111 (1970).
In a study designed to investigate the use of adenosine to inhibit occlusion of coronary grafts, nine patients (age 45-65, all taking beta-blockers) were studied during coronary artery surgery. After premedication, morphine (10-15 mg) and scopolamine (0.4-0.6 mg), anesthesia was induced by fentanyl (30 mcg/kg.b.w.). Pancuronium (0.1 mg/kg b.w.) was given to facilitate endotracheal intubation. Anesthesia was maintained with fentanyl 0.5 mg/hour, N2 O (50%) in oxygen and droperidol (0.1 mg/kg b.w.). During bypass thiomebumal (5 mg/kg b.w.) was given. Nitrous oxide was not used after bypass. Extracorporeal circulation (ECC) was performed with a roller pump and a Shiley bubble oxyqenator primed with crystalloid solution. ECG (modified V5), an arterial line and a Swan-Ganz Catheter were used for monitoring and for hemodynamic measurements. Blood flow in bypass grafts (n=15, internal mammary and venous grafts), was measured with appropriate sized square wave electromagnetic flow probes (Nycotron 732). The study was performed 20-30 minutes after the termination of ECC. After a control period (5 min), adenosine (5.3 mg/ml. clinical solution) was continuously infused in a central vein in order to induce approximately 10% reduction of mean arterial blood pressure (about 30 to 50 ug per kg. per min.). Graft flow was continuously measured before and during a 10 or 30 minute infusion of adenosine and finally during the following 5 minute control period. Data are expressed as mean ±SEM and differences were tested with Student's paired t-test against the preceding period.

[3] = test system: pulmonary vascular resistance
[4] = test system: oxygen consumption and lactate; assay: Oxygen contents, oxygen consumption and lactate during controlled hypotension; type: in vivo, human
Experimental: The correct position was verified by x-ray.
The hemoglobin concentration was determined spectrophotometrically. […] Scand., 120: 171-76 (1984). […] (London), 313: 351-67 (1981). […] Arterial levels of dipyridamole were determined by HPLC. J. Chromatogr., 162: 98-103 (1979). […] Scand. Clin. Lab. Invest., 27:15-19 (1971).
The mean hypotensive period was 32±8 min.
Oxygen content was derived from the formula SO2*× 1.34×Hb+PO2× […]. Foex et al., Br. J. Anesth., 42: 803-4 (1970). The arteriovenous oxygen content difference (AVDO2) was determined and used to calculate total oxygen consumption (VO2) as the product of AVDO2 and QT. *SO2 =Oxygen saturation.
Oxygen contents, consumptions and lactate concentrations in nine patients before, during and 30 minutes after controlled hypotension are summarized in Table III.

[5] = Solubility of adenosine; type: physicochemical; conditions: for solubility: read-out: solubility limit
[6] = test system: pulmonary vascular resistance; conditions: systemic vasodilator doses
[7] = Control 2, 30 min after hypotension

Nc1ncnc2c1ncn2[C@@H]1O[C@H](CO)[C@@H](O)[C@H]1O [adenosine]
cardiac output on termination of adenosine ([1]; 40-80 ug/kg/per minute): frequently remains above the cardiac output prior to treatment | cardiac output and heart work (words) [1]: increase cardiac output without increasing heart work | cardiac output and heart work (words) ([1]; listed as Adenosine): significantly increasing cardiac output without significantly increasing cardiac work | graft blood flow, post-operative low dose ([2]; 0.02 to 0.05 mg/kg/min, words): increase graft blood flow | graft flow ([2]; 30-50 ug per kg per min): doubled graft flow; also recorded: marked and reproducible increase in graft flow | myocardial work ([2]; 30-50 ug per kg per min): without increased myocardial work | arrhythmias ([2]; 49±4 ug/kg/minute): No arrhythmias were observed | heart rate, mean pulmonary artery pressure, central venous pressure, stroke index and left ventricular stroke work index ([2]; 49±4 ug/kg/minute): remained essentially unchanged | increase of cardiac output ([2]; 49±4 ug/kg/minute): 12% | reduction of mean arterial pressure ([2]; 49±4 ug/kg/minute): 12% | Cardiac output ([2]; control after adenosine): 5.3 ± 0.3 L/min | Left Ventricular Stroke Index ([2]; control after adenosine): 0.49 ± 0.04 Joule/n^2 | Mean Arterial Pressure ([2]; control after adenosine): 85 ± 3 mmHg | Pulmonary Artery Pressure (mean) ([2]; control after adenosine): 19.9 ± 1.0 mmHg | RAP (mean) ([2]; control after adenosine): 5.8 ± 0.7 mmHg | Stroke Index ([2]; control after adenosine): 39.6 ± 2.5 ml/m^2 | heart rate ([2]; control after adenosine): 81 ± 6 beats/min. | graft flow ([2]; control after adenosine, n = 15): 39 ± 5 mL/min | Cardiac output ([2]; during adenosine): 5.6 ± 0.3 L/min | Left Ventricular Stroke Index ([2]; during adenosine): 0.41 ± 0.03 Joule/n^2 | Mean Arterial Pressure ([2]; during adenosine): 74 ± 3 mmHg | Pulmonary Artery Pressure (mean) ([2]; during adenosine): 18.8 ± 1.2 mmHg | RAP (mean) ([2]; during adenosine): 5.3 ± 0.4 mmHg | Stroke Index ([2]; during adenosine): 38.8 ± 2.0 ml/m^2 | heart rate ([2]; during adenosine): 82 ± 15 beats/min. | graft flow ([2]; during adenosine, n = 15): 77 ± 7 mL/min | graft flow rate on termination of adenosine ([2]; in vivo): restored to its original value | atrio-ventricular conductance at low dose ([2]; post-operative low doses, words): without significant effect on atrio-ventricular conductance | pulmonary vascular resistance in induced pulmonary hypertension ([3]; intravenous, hypoxic ventilation during anesthesia): marked reduction | systemic vasodilator effects, cardiac output, arterial oxygen at doses lowering pulmonary resistance ([3]; pig, in vivo): commonly do not result in detectable vasodilator effects or effects on cardiac output or arterial oxygen function | decrease in AVDO2 [4]: 37±5% | decrease in cerebral AVDO2 [4]: 37±13% | decrease of VO2 [4]: 13±4% | Arterial lactate concentration (La) [4, 7]: 1.82 ± 0.20 mmol per liter | Arterial oxygen tension (PaO2) [4, 7]: 93.0 ± 5.2 mmHg | Jugular arteriovenous lactate content difference (AVDj La) [4, 7]: -0.06 ± 0.04 mmol per liter | Jugular arteriovenous oxygen content difference (AVDj O2) [4, 7]: 74.9 ± 7.7 ml. per liter | Total arteriovenous oxygen content difference (AVDT O2) [4, 7]: 46.8 ± 3.2 ml per liter | Total oxygen consumption (VT O2) [4, 7]: 235 ± 16 ml per mm. | arterial lactate concentration ([4]; during / after hypotension): not affected; also recorded: minor increase | Arterial lactate concentration (La) ([4]; during adenosine): 1.73 ± 0.20 mmol per liter | Arterial oxygen tension (PaO2) ([4]; during adenosine): 97.5 ± 9.0 mmHg | Jugular arteriovenous lactate content difference (AVDj La) ([4]; during adenosine): -0.05 ± 0.05 mmol per liter | Jugular arteriovenous oxygen content difference (AVDj O2) ([4]; during adenosine): 58.1 ± 14.1 ml. per liter | Total arteriovenous oxygen content difference (AVDT O2) ([4]; during adenosine): 29.3 ± 2.5 ml per liter | Total oxygen consumption (VT O2) ([4]; during adenosine): 193 ± 16 ml per mm. | arterial oxygen tension ([4]; during hypotension): remained unchanged | arterio-jugular lactate content difference ([4]; during hypotension): unaltered | solubility limit ([5]; b421 prints mg/ml): 5.5-6 milligrams per milliliter | solubility ([5]; b421 prints mg/ml): 5500 to 6000 µg/mL | solubility [5]: ~20 mM | normal pulmonary vascular resistance [6]: negligible or at most, minor effect
